Entries after “also recorded” stand apart in the source; their conditions may differ.

The source of these data is US9358272B2, “Multicomponent compositions and their uses” (THE ADMINISTRATORS OF THE TULANE EDUCATIONAL FUND, priority 2011, dated 2016).

One assay deals with HPB-ALL cells. The assay can be described thus: VPA-induced cell morphological change, HPB-ALL cells. In kind it is cell-based, Human. The source says:
(§1) The cancer cells were inspected and photographed under an inverted light microscope at 10× magnification.

In assay [1] the test system is ovarian cancer NCI/ADR-RES cells. The assay can be described thus: Cell proliferation assay (MTT), NCI/ADR-RES cells. The assay is classed as cell-based. On the procedure: (§2) Cell Proliferation Assay (MTT) The cell proliferation assay (Promega, Madison, Wis.) was performed as described in Sun et al., Bioorg Med Chem Lett, 2004, Vol. 14, pp. 2041-2046. The absorbance was measured and recorded at 570 nm by a Victor Plate Reader (PerkinElmer, Boston, Mass.).

The test system of assay [2] is cervical cancer Hela cells. The assay can be described thus: Cell proliferation assay (MTT), cervical cancer Hela cells. The assay is classed as cell-based, Human. Conditions: single agents and combinations, VPA 2.5 mM in FIGS. 19, 22.
Method: Briefly, fifty μl of medium with or without tested compounds was added to 96-well plates. Another 50 μl of tested cancer cells (1×10^5 cells/ml) suspended in culture medium was dispensed into each well. The plates were incubated at 37° C. for 3 days. Afterward, plates were added with a 15 μl dye solution per well and incubated at 37° C. for 4 hours. To each well was then added 100 μl of the solubilization solution and the plates were incubated at 37° C. again until the contents in each well became a uniformly colored solution. The plates were measured at 570 nm by a Victor Reader (PerkinElmer).
For the next assay, the system named is hepatoma HTB-52 cells. The assay can be described thus: VPA-induced cell morphological change, HTB-52 cells. The assay is classed as cell-based.
Excerpt: as §1

Assay [3] relates to pancreatic cancer CFPAC-1 cells. Description: Cell proliferation assay (MTT), CFPAC-1 cells. The assay is classed as cell-based, Human. Conditions: single agents and combinations. The procedure:
Cell Proliferation Assay (MTT)
The cell proliferation assay was performed as described previously in Sun et al., Bioorg Med Chem Lett, 2004, Vol. 14, pp. 2041-2046. Briefly, 50 μl aliquots of medium with different concentrations of compounds were added to 96-well plates. All compound concentrations were tested in triplicate. Another 50 μl of the cell stock (1×10^5 cells/ml of media) was dispensed into each test well and the plates were incubated at 37° C. in a CO2 incubator for 3 days. Following the incubation period, 15 μl of the dye solution was added to each well and the plates were then incubated at 37° C. for 4 hours, followed by the addition of 100 μl per well of the solubilization solution. The plates were incubated at 37° C. until the contents in each well became a uniform-colored solution. The absorbance was measured and recorded at 570 nm by a Victor Plate Reader.
The cell proliferation assay (Promega, Madison, Wis.) was performed as described in Sun et al., Bioorg Med Chem Lett, 2004, Vol. 14, pp. 2041-2046. The absorbance was measured and recorded at 570 nm by a Victor Plate Reader (PerkinElmer, Boston, Mass.).

The next assay deals with Leukemia MOLT-4 cells. Description: VPA-induced cell morphological change, MOLT-4 cells. The assay is classed as cell-based.
Excerpt: as §1

Assay [4] deals with lung cancer A549 cells. Description: Cell proliferation assay (MTT), A549 cells. The assay is classed as cell-based. The procedure:
as §2

Assay [5] deals with lung cancer A549 cells. The assay can be described thus: VPA-induced cell morphological change, A549 cells. In kind it is cell-based.
Excerpt: as §1

In the case of `CCCC(CCC)C(=O)O` [VPA, valproic acid], the “cell morphological change, in words” value in the assay with HPB-ALL cells is listed as “no effect”; in the assay on hepatoma HTB-52 cells it was “could induce morphological change”; in the assay with Leukemia MOLT-4 cells, “no effect”; in the assay on lung cancer A549 cells [5], “no effect”. In addition, the “cell growth suppression (MTT), in words” value in assay [1] is “displayed its anti-proliferative ability; also recorded: displays its anti-proliferation ability”; in assay [2], “displayed growth inhibition; also recorded: suppressed cell proliferation in a dose-dependent manner; also recorded: induced growth arrest; also recorded: suppressed cervical cancer Hela cell growth in a dose-dependent manner”; in assay [3] it was “displayed its anti-proliferative ability”; with lung cancer A549 cells [4], “little effect; also recorded: not apparent”.
